Patent publication US10106515B2, “1-(cyclopent-2-en-1-yl)-3-(2-hydroxy-3-(arylsulfonyl)phenyl)urea derivatives as CXCR2 inhibitors” (GLAXOSMITHKLINE INTELLECTUAL PROPERTY DEVELOPMENT LIMITED, priority 2014, dated 2018)
Counter-ions that a name gives are not always drawn.

Legend:
[1] = biological target: T1, recombinant human CXCR2 (Homo sapiens, UniProt P25025); experiment: CXCR2 Tango assay; type: cell-based; conditions: mean pIC50 of multiple test results; stimulated with 80 nM hCXCL1; reporter gene blue/green emission ratio; read-out: pIC50 (CXCR2 Tango assay) (converted)
T1 construct: TEV protease site; Gal4-VP16 transcription factor
T1 sequence (P25025 1-360): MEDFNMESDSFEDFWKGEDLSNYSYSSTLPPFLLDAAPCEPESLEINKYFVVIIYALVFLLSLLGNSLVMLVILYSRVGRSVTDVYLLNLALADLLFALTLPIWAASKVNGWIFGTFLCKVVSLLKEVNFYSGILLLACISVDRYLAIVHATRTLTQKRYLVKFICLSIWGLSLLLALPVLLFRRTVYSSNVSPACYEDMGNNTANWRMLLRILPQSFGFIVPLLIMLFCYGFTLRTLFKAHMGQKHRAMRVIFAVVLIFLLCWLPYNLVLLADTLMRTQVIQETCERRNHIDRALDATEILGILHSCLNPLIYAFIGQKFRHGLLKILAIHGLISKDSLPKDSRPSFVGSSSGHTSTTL
Outline: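 A stable cell line carries human CXCR2 fused to a TEV site and Gal4-VP16, with protease-tagged arrestin. Cells (~10,000/well) were stimulated overnight at 37 °C with 80 nM hCXCL1 and a 10-point compound dilution. CCF4-AM beta-lactamase FRET (460/530 nm ratio) was read, normalized to hCXCL1 and DMSO, and mean pIC50 reported.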

[2] = system: upregulation of CD11b in GROα stimulated neutrophils in human whole blood; experiment: Human whole blood assay (CD11b upregulation); type: cell-based; conditions: Neutrophil, inhibition of CD11b upregulation, GROα 33 nM final, flow cytometry, read-out: pIC50 (human whole blood assay) (converted)
Method: The whole blood assay tested the compounds' ability to inhibit the upregulation of CD11b in GROα stimulated neutrophils in human whole blood.
Blood was withdrawn by venipuncture from consented adults and poured into a Sterilin tube containing an anti-coagulant Heparin (10 uL/mL of blood). All the test compounds were dissolved in DMSO to 4 mM and serial diluted across the plate, 1 in 3 to provide 10 point dose response curves. The compounds were then diluted 100 fold in -PBS [Phosphate buffered saline (without Calcium Chloride and Magnesium Chloride)] after which, 1 uL was dispensed in 96 U bottom Costar plates using an FX.
10 uL of blood was transferred to the compound plate using a multi-channel pipette, gently tapped and incubated for 15 minutes, at 37° C. After 15 minutes, the stimulant GROα was diluted to 100 nM in 0.1% BSA (Albumin Bovine Serum)-PBS and 5 uL is dispensed across the whole plate for a final concentration of 33 nM. The plate was gently tapped and incubated further for 15 minutes at 37° C. The plate was placed on ice for 1 minute before addition of 10 uL of an antibody cocktail consisting of CD11b-FITC (40 ug/mL) purchased from BioLegend (address: Cambridge Bioscience, Munro House, Trafalgar Way, Bar Hill, Cambridge, UK) and CD16-PE purchased from BD Pharmingen (address: The Danby Building, Edmung Halley Road, Oxford Science Park, Oxford, UK) (stock concentration 100 tests, 2 mL stock volume is diluted 1 in 5). The plate was placed on ice for 1 hour in the dark. The cells were then fixed using 200 uL/well of 1×FACS (Flow Activated Cell Sorting) Lyse solution (Becton and Dickinson-BD) and on ice for 20 minutes in the dark. The plate was centrifuged at 1600 rpm for 5 minutes and re-suspended with 200 uL of ice cold PBS. This step was repeated twice and on the final step the plate was re-suspended with 50 uL of ice cold -PBS for flow Cytometric analysis.
Samples were run on a Becton and Dickinson (BD)-Acurri C6 Flow Cytometer using a HyperCyt sampling apparatus (IntelliCyt) with a flow rate 2 uL/sec. CD11b upregulation is monitored in neutrophils and identified using a combination of both side scatter and CD16 expression.

Row | SMILES | IC50 [1] [nM] | IC50 [2] [nM]
1 | CC1=CCC[C@H]1NC(=O)Nc1ccc(C#N)c(S(=O)(=O)C(C)(C)C)c1O [Compound 191, (R)-1-(3-(tert-butylsulfonyl)-4-cyano-2-hydroxyphenyl)-3-(2-methylcyclopent-2-en-1-yl)urea] | ≤ 1 | 25.1 to 2510
2 | CC1=CCC[C@H]1NC(=O)Nc1ccc(Cl)c(S(=O)(=O)C2(C)CCCOC2)c1O (stereo partly drawn) [Compound 66, 1-(4-chloro-2-hydroxy-3-((3-methyltetrahydro-2H-pyran-3-yl)sulfonyl)phenyl)-3-((R)-2-methylcyclopent-2-en-1-yl)urea] | ≤ 10 | 25.1 to 2510
3 | CC1=CCC[C@H]1NC(=O)Nc1ccc(Cl)c(S(=O)(=O)C(C)(C)CF)c1O [Compound 62, (R)-1-(4-chloro-3-((1-fluoro-2-methylpropan-2-yl)sulfonyl)-2-hydroxyphenyl)-3-(2-methylcyclopent-2-en-1-yl)urea] | ≤ 1 | 25.1 to 2510
4 | CC1=CCCC1NC(=O)Nc1ccc(Cl)c(S(=O)(=O)C2(C)CCOCC2)c1O (stereo not drawn) [Compound 107, 1-(4-chloro-2-hydroxy-3-((4-methyltetrahydro-2H-pyran-4-yl)sulfonyl)phenyl)-3-(2-methylcyclopent-2-en-1-yl)urea] | ≤ 10 | 25.1 to 2510
5 | CC1=CCC[C@H]1NC(=O)Nc1ccc(C#N)c(S(=O)(=O)C(C)(C)F)c1O [Compound 123, (R)-1-(4-cyano-3-((2-fluoropropan-2-yl)sulfonyl)-2-hydroxyphenyl)-3-(2-methylcyclopent-2-en-1-yl)urea] | ≤ 1 | 25.1 to 2510
6 | O=C(Nc1ccc(Cl)c(S(=O)(=O)[C@H]2C[C@H](N3CCCC3)C2)c1O)N[C@@H]1CCC=C1Cl [Compound 185, 1-(4-chloro-2-hydroxy-3-((trans-3-(pyrrolidin-1-yl)cyclobutyl)sul-fonyl)phenyl)-3-((R)-2-chlorocyclopent-2-en-1-yl)urea, trifluoroacetic acid salt] | ≤ 10 | 25.1 to 2510
7 | CC1=CCC[C@H]1NC(=O)Nc1ccc(Cl)c(S(=O)(=O)[C@H]2C[C@H](N(C)C)C2)c1O [Compound 193, 1-(4-chloro-3-((trans-3-(dimethylamino)cyclobutyl)sulfonyl)-2-hydroxyphenyl)-3-((R)-2-methylcyclopent-2-en-1-yl)urea] | ≤ 1 | 25.1 to 2510
8 | CC1=CCC[C@H]1NC(=O)Nc1ccc(Cl)c(S(=O)(=O)C(C)c2ccccn2)c1O (stereo partly drawn) [Compound 23, 1-(4-chloro-2-hydroxy-3-((1-(pyridin-2-yl)ethyl)sulfonyl)phenyl)-3-((R)-2-methylcyclopent-2-en-1-yl)urea, trifluoroacetic acid salt] | ≤ 1 | 25.1 to 2510
9 | COCC(C)S(=O)(=O)c1c(Cl)ccc(NC(=O)N[C@@H]2CCC=C2C)c1O (stereo partly drawn) [Compound 158, 1-(4-chloro-2-hydroxy-3-((1-methoxypropan-2-yl)sulfonyl)phenyl)-3-((R)-2-methylcyclopent-2-en-1-yl)urea] | ≤ 10 | 25.1 to 2510
10 | CC(C)(C1COC1)S(=O)(=O)c1c(Cl)ccc(NC(=O)N[C@@H]2CCC=C2Cl)c1O [Compound 5, (R)-1-(4-chloro-2-hydroxy-3-((2-(oxetan-3-yl)propan-2-yl)sulfonyl)phenyl)-3-(2-chlorocyclopent-2-en-1-yl)urea] | ≤ 10 | 25.1 to 2510
11 | CC1=CCC[C@H]1NC(=O)Nc1ccc(Cl)c(S(=O)(=O)C(C)(C)C2CCOCC2)c1O [Compound 60, (R)-1-(4-chloro-2-hydroxy-3-((2-(tetrahydro-2H-pyran-4-yl)propan-2-yl)sulfonyl)phenyl)-3-(2-methylcyclopent-2-en-1-yl)urea] | ≤ 1 | 25.1 to 2510
12 | CO[C@@H]1CCC[C@H]1S(=O)(=O)c1c(Cl)ccc(NC(=O)N[C@@H]2CCC=C2C)c1O (racemic) [Compound 144, (±)trans-1-(4-chloro-2-hydroxy-3-((2-methoxycyclopent-yl)sulfonyl)phenyl)-3-((R)-2-methylcyclopent-2-en-1-yl)urea, trifluoroacetic acid salt] | ≤ 1 | 25.1 to 2510
13 | CC1=CCC[C@H]1NC(=O)Nc1ccc(Cl)c(S(=O)(=O)n2ccc3cccnc32)c1O [Compound 90, (R)-1-(3-((1H-pyrrolo[2,3-b]pyridin-1-yl)sulfonyl)-4-chloro-2-hydroxyphenyl)-3-(2-methylcyclopent-2-en-1-yl)urea] | ≤ 1 | 25.1 to 2510
14 | CC1=CCC[C@H]1NC(=O)Nc1ccc(Cl)c(S(=O)(=O)C(C)c2ncccn2)c1O (stereo partly drawn) [Compound 27, 1-(4-chloro-2-hydroxy-3-((1-(pyrimidin-2-yl)ethyl)sulfonyl)phenyl)-3-((R)-2-methylcyclopent-2-en-1-yl)urea] | ≤ 10 | 25.1 to 2510
15 | CC1=CCC[C@H]1NC(=O)Nc1ccc(Cl)c(S(=O)(=O)C2CC(F)(F)C2)c1O [Compound 76, (R)-1-(4-chloro-3-((3,3-difluorocyclobutyl)sulfonyl)-2-hydroxyphenyl)-3-(2-methylcyclopent-2-en-1-yl)urea trifluoroacetic acid salt] | ≤ 1 | 25.1 to 2510
16 | CC1=CCC[C@H]1NC(=O)Nc1ccc(Cl)c(S(=O)(=O)C(F)(F)CN(C)C)c1O [Compound 136, (R)-1-(4-chloro-3-((2-(dimethylamino)-1,1-difluoroethyl)sulfonyl)-2-hydroxyphenyl)-3-(2-methylcyclopent-2-en-1-yl)urea] | ≤ 10 | 25.1 to 2510
17 | CN(C)[C@H]1C[C@H](S(=O)(=O)c2c(Cl)ccc(NC(=O)N[C@@H]3CCC=C3Cl)c2O)C1 [Compound 184, 1-(4-chloro-3-((trans-3-(dimethylamino)cyclobutyl)sulfonyl)-2-hydroxyphenyl)-3-((R)-2-chlorocyclopent-2-en-1-yl)urea, trifluoroacetic acid salt] | ≤ 10 | 25.1 to 2510
18 | CC1=CCCC1NC(=O)Nc1ccc(Cl)c(S(=O)(=O)N2CCC(F)(F)C2)c1O (stereo not drawn) [Compound 114, 1-(4-chloro-3-((3,3-difluoropyrrolidin-1-yl)sulfonyl)-2-hydroxyphenyl)-3-(2-methylcyclopent-2-en-1-yl)urea, trifluoroacetic acid salt] | ≤ 10 | 25.1 to 2510
19 | CC1=CCCC1NC(=O)Nc1ccc(Cl)c(S(=O)(=O)N2CC(F)C2)c1O (stereo not drawn) [Compound 112, 1-(4-chloro-3-((3-fluoroazetidin-1-yl)sulfonyl)-2-hydroxyphenyl)-3-(2-methylcyclopent-2-en-1-yl)urea] | ≤ 10 | 25.1 to 2510
20 | CC1=CCC[C@H]1NC(=O)Nc1ccc(Cl)c(S(=O)(=O)C(C)(C)C)c1O [Compound 57] | ≤ 1 | 25.1 to 2510
21 | CC1(S(=O)(=O)c2c(Cl)ccc(NC(=O)N[C@@H]3CCC=C3Cl)c2O)CCOC1 (stereo partly drawn) [Compound 39, 1-(4-chloro-2-hydroxy-3-((3-methyltetrahydro-furan-3-yl)sulfonyl)phenyl)-3-((R)-2-chlorocyclopent-2-en-1-yl)urea] | ≤ 1 | 25.1 to 2510
22 | CCC1(S(=O)(=O)c2c(Cl)ccc(NC(=O)N[C@@H]3CCC=C3C)c2O)CCOCC1 [Compound 119, (R)-1-(4-chloro-3-((4-ethyltetrahydro-2H-pyran-4-yl)sulfonyl)-2-hydroxyphenyl)-3-(2-methylcyclopent-2-en-1-yl)urea] | ≤ 1 | 25.1 to 2510
23 | CC1(S(=O)(=O)c2c(Cl)ccc(NC(=O)N[C@H]3CCC=C3Cl)c2O)CCOCC1 [Compound 42, (S)-1-(4-chloro-2-hydroxy-3-((4-methyltetrahydro-2H-pyran-4-yl)sulfonyl)phenyl)-3-(2-chlorocyclopent-2-en-1-yl)urea] | – | 25.1 to 2510
